Experimental data: patent US20240270762A1, “PENICILLIN-BINDING PROTEIN INHIBITORS” (priority 2021, published 2024)
Converted amounts (≈) assume the structure as drawn.

Assays:
[1] = target: T1, PBP3 from Acinetobacter baumannii (ATCC 19606) (Acinetobacter baumannii, UniProt A0ABX6CK25); experiment: Bocillin-FL fluorescence polarization competition binding, A. baumannii PBP3; conditions: fluorescence polarization competition binding assay using Bocillin-FL; read-out: A. baumannii PBP3 Potency
T1 sequence (A0ABX6CK25 64-610): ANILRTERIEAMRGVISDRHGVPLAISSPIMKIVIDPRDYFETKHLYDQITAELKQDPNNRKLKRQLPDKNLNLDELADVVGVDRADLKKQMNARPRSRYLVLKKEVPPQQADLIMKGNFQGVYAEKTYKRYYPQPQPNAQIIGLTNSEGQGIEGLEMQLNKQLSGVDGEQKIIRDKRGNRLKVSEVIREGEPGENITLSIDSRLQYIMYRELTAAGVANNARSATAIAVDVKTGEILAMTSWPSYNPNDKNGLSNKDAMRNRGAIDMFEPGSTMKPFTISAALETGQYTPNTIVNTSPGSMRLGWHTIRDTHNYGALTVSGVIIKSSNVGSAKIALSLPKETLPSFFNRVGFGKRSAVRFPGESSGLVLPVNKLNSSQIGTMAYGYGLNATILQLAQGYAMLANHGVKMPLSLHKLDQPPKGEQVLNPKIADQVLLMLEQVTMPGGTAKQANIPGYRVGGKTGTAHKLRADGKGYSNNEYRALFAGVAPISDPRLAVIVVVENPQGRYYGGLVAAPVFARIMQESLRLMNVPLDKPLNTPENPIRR
Method in brief: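 Purified PBP was preincubated with inhibitor (E. coli PBP3 1.5 μM, 30 min; P. aeruginosa PBP3 0.75 μM, A. baumannii PBP3 0.2 μM and PBP1a 1 μM, 15 min), then Bocillin-FL (0.1 μM; 0.05 μM for PBP1a) added and FP read up to 60 min. EC50 = 50% loss of bound probe.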

[2] = test system: P. aeruginosa ATCC 35151; experiment: microbe, parasite or virus in culture; assay type: cell-based; conditions: Pseudomonas aeruginosa, ATCC35151, read-out: Minimum inhibitory concentration, P. aeruginosa ATCC 35151
[3] = test system: P. aeruginosa CDC-0095; experiment: microbe, parasite or virus in culture; assay type: cell-based; conditions: Pseudomonas aeruginosa, CDC0095, read-out: Minimum inhibitory concentration, P. aeruginosa CDC-0095
[4] = test system: A. baumannii 1258916; experiment: microbe, parasite or virus in culture; assay type: cell-based, Acinetobacter baumannii; conditions: Acinetobacter baumannii, 1258916, read-out: MIC, A. baumannii 1258916
[5] = test system: A. baumannii CDC-0045; experiment: microbe, parasite or virus in culture; assay type: cell-based; conditions: Acinetobacter baumannii, CDC0045, read-out: MIC, A. baumannii CDC-0045
[6] = test system: B. thailandensis ATCC 700388; experiment: microbe, parasite or virus in culture; assay type: cell-based; conditions: Burkholderia thailandensis, ATCC700388, read-out: Minimum inhibitory concentration (MIC), B. thailandensis ATCC 700388
[7] = test system: N. gonorrhoeae MS11; experiment: Liquid broth MIC in Fastidious broth; conditions: Neisseria gonorrhoeae, MS11, read-out: Minimum Inhibitory Concentration, MS11
Experimental: Additional antibacterial testing of the series was performed in 8 reference strains of N. gonorrhoeae (ATCC 49226, FA1090, MS 11, WHO G, WHO L, WHO M, WHO K, WHO X, WHO Z, WHO Q, CDC-0197). ATCC 49226, FA1090, MS11, WHO G, WHO L, and WHO M produce wild type or wild-type like PBP2. WHO K, WHO X, WHO Z, WHO Q, and CDC-0197 produce mosaic PBP2. Liquid broth-based assays were used for antibacterial testing of PBP inhibitors in Neisseria gonorrhoeae. Briefly, cryo-preserved bacterial cultures of clinical strains were streaked for isolation on Chocolate Agar (72 g/L (2×) GC Agar Base (BD #228950) and 2% (2×) Hemoglobin was autoclaved at 121° C. for 20 minutes to sterilize. Once cooled to ˜50° C. the 2×GC Agar Base and 2× Hemoglobin solutions are combined and 1% IsoVitaleX Enrichment (BD #211876) was added to the solution). Strains were incubated at 36° C. and 5% CO2 to allow growth of colonies, 24 hours before inoculum preparation. 2-fold serial dilutions of test compounds were conducted in a 96 well plate with a final volume of 75 μL per well at 2-fold the final desired concentration in Fastidious broth (Remel #R07664). For preparation of assay inoculum, a direct suspension was prepared by aseptically swabbing 10-15 colonies from agar plates into culture tubes containing 2 mL of fresh sterile saline. After the dilution plates were set up, direct suspensions were then diluted in a cuvette containing sterile saline and the optical density was measured at 600 nm. Inocula were diluted such that 75 μL of this culture in Fastidious broth results in a starting bacterial concentration of 5×10^5 CFU/mL when added to the dilution plates. The plates were incubated for ˜24 hours at 36° C. and 5% CO2.

[8] = test system: N. gonorrhoeae WHO L; experiment: Liquid broth MIC in Fastidious broth; conditions: Neisseria gonorrhoeae, read-out: Minimum Inhibitory Concentration, WHO L
[9] = test system: N. gonorrhoeae WHO Q; experiment: Liquid broth MIC in Fastidious broth; conditions: Neisseria gonorrhoeae, read-out: Minimum Inhibitory Concentration, WHO Q
Experimental: Liquid broth-based assays were used for antibacterial testing of PBP inhibitors in Neisseria gonorrhoeae. Briefly, cryo-preserved bacterial cultures of clinical strains were streaked for isolation on Chocolate Agar (72 g/L (2×) GC Agar Base (BD #228950) and 2% (2×) Hemoglobin was autoclaved at 121° C. for 20 minutes to sterilize. Once cooled to ˜50° C. the 2×GC Agar Base and 2× Hemoglobin solutions are combined and 1% IsoVitaleX Enrichment (BD #211876) was added to the solution). Strains were incubated at 36° C. and 5% CO2 to allow growth of colonies, 24 hours before inoculum preparation. 2-fold serial dilutions of test compounds were conducted in a 96 well plate with a final volume of 75 μL per well at 2-fold the final desired concentration in Fastidious broth (Remel #R07664). For preparation of assay inoculum, a direct suspension was prepared by aseptically swabbing 10-15 colonies from agar plates into culture tubes containing 2 mL of fresh sterile saline. After the dilution plates were set up, direct suspensions were then diluted in a cuvette containing sterile saline and the optical density was measured at 600 nm. Inocula were diluted such that 75 μL of this culture in Fastidious broth results in a starting bacterial concentration of 5×10^5 CFU/mL when added to the dilution plates. The plates were incubated for ˜24 hours at 36° C. and 5% CO2.

[10] = test system: N. gonorrhoeae CDC-0197; experiment: Liquid broth MIC in Fastidious broth; conditions: Neisseria gonorrhoeae, CDC0197, read-out: Minimum Inhibitory Concentration, CDC-0197

Compound | IC50 [1] | MIC [2] | MIC [3] | MIC [4] | MIC [5] | MIC [6] | MIC [7] | MIC [8] | MIC [9] | MIC [10]
O=C(NCCCN1CCN(C(=O)NC(C(=O)N[C@H]2Cc3ccc(F)c(C(=O)O)c3OB2O)c2cc(F)c(O)c(O)c2Cl)C1=O)Nc1cccnc1 (stereo partly drawn) [Example 259, (3R)-3-(2-(2-chloro-5-fluoro-3,4-dihydroxyphenyl)-2-(2-oxo-3-(3-(3-(pyridin-3-yl)ureido)propyl)imidazolidine-1-carboxamido)acetamido)-7-fluoro-2-hydroxy-3,4-dihydro-2H-benzo[e][1,2]oxaborinine-8-carboxylic acid] | < 10 µM | < 1 µg/mL | 2 to 4 µg/mL (≈ 2.73 to 5.47 µM) | < 1 µg/mL | < 1 µg/mL | < 1 µg/mL | 16 to 32 µg/mL (≈ 21.9 to 43.7 µM) | > 64 µg/mL | 16 to 32 µg/mL (≈ 21.9 to 43.7 µM) | 16 to 32 µg/mL (≈ 21.9 to 43.7 µM)
O=C(NCCS(=O)(=O)N1CCN(C(=O)NC(C(=O)N[C@H]2Cc3ccc(F)c(C(=O)O)c3OB2O)c2cc(F)c(O)c(O)c2Cl)C1=O)c1ccccc1 (stereo partly drawn) [Example 260, (3R)-3-(2-(3-((2-benzamidoethyl)sulfonyl)-2-oxoimidazolidine-1-carboxamido)-2-(2-chloro-5-fluoro-3,4-dihydroxyphenyl)acetamido)-7-fluoro-2-hydroxy-3,4-dihydro-2H-benzo[e][1,2]oxaborinine-8-carboxylic acid] | < 10 µM | < 1 µg/mL | 2 to 4 µg/mL (≈ 2.61 to 5.22 µM) | < 1 µg/mL | < 1 µg/mL | > 128 µg/mL | 16 to 32 µg/mL (≈ 20.9 to 41.8 µM) | > 64 µg/mL | 16 to 32 µg/mL (≈ 20.9 to 41.8 µM) | 16 to 32 µg/mL (≈ 20.9 to 41.8 µM)
O=C(NCCS(=O)(=O)N1CCN(C(=O)NC(C(=O)N[C@H]2Cc3ccc(F)c(C(=O)O)c3OB2O)c2cc(F)c(O)c(O)c2Cl)C1=O)c1cccc(O)c1 (stereo partly drawn) [Example 261, (3R)-3-(2-(2-chloro-5-fluoro-3,4-dihydroxyphenyl)-2-(3-((2-(3-hydroxybenzamido)ethyl)sulfonyl)-2-oxoimidazolidine-1-carboxamido)acetamido)-7-fluoro-2-hydroxy-3,4-dihydro-2H-benzo[e][1,2]oxaborinine-8-carboxylic acid] | < 10 µM | < 1 µg/mL | 2 to 4 µg/mL (≈ 2.56 to 5.12 µM) | < 1 µg/mL | < 1 µg/mL | 2 to 4 µg/mL (≈ 2.56 to 5.12 µM) | 16 to 32 µg/mL (≈ 20.5 to 40.9 µM) | > 64 µg/mL | 16 to 32 µg/mL (≈ 20.5 to 40.9 µM) | 16 to 32 µg/mL (≈ 20.5 to 40.9 µM)
O=C(NCCS(=O)(=O)N1CCN(C(=O)NC(C(=O)N[C@H]2Cc3ccc(F)c(C(=O)O)c3OB2O)c2cc(F)c(O)c(O)c2Cl)C1=O)c1cccnc1 (stereo partly drawn) [Example 262, (3R)-3-(2-(2-chloro-5-fluoro-3,4-dihydroxyphenyl)-2-(3-((2-(nicotinamido)ethyl)sulfonyl)-2-oxoimidazolidine-1-carboxamido)acetamido)-7-fluoro-2-hydroxy-3,4-dihydro-2H-benzo[e][1,2]oxaborinine-8-carboxylic acid] | < 10 µM | < 1 µg/mL | 2 to 4 µg/mL (≈ 2.61 to 5.22 µM) | < 1 µg/mL | < 1 µg/mL | < 1 µg/mL | 16 to 32 µg/mL (≈ 20.9 to 41.7 µM) | > 64 µg/mL | 16 to 32 µg/mL (≈ 20.9 to 41.7 µM) | 16 to 32 µg/mL (≈ 20.9 to 41.7 µM)
O=C(NCCS(=O)(=O)N1CCN(C(=O)N[C@H](C(=O)N[C@H]2Cc3ccc(F)c(C(=O)O)c3OB2O)c2cc(F)c(O)c(O)c2Cl)C1=O)c1nccs1 [Example 263, (R)-3-((S)-2-(2-chloro-5-fluoro-3,4-dihydroxyphenyl)-2-(2-oxo-3-((2-(thiazole-2-carboxamido)ethyl)sulfonyl)imidazolidine-1-carboxamido)acetamido)-7-fluoro-2-hydroxy-3,4-dihydro-2H-benzo[e][1,2]oxaborinine-8-carboxylic acid] | 10 to 50 µM | 2 to 4 µg/mL (≈ 2.59 to 5.18 µM) | > 128 µg/mL | 32 to 64 µg/mL (≈ 41.4 to 82.8 µM) | 32 to 64 µg/mL (≈ 41.4 to 82.8 µM) | 8 to 16 µg/mL (≈ 10.4 to 20.7 µM) | > 64 µg/mL | > 64 µg/mL | > 64 µg/mL | > 64 µg/mL
